Results on 7 compounds are retold here after PubChem BioAssay AID1745844 (Carcinogenic Potency Database (CPDB), 2022).

The source made the active and inactive calls. No rule for the calls is given here.

In this data set the test system is rodent lifetime carcinogenesis bioassay, tumor incidence TD50. The data set is described as follows: chronic cancer bioassays in animals – CPDB, compiled studies (AID 1745844).

Regarding `ClC1=C(Cl)[C@]2(Cl)[C@@H]3[C@H]4C[C@H]([C@@H]5O[C@H]45)[C@@H]3[C@@]1(Cl)C2(Cl)Cl`, the TD50 (as a rule, the dose at which the toxic effect under study appears in half of the subjects) is 6.88 mg/kg/day (inactive) (mouse, strain B6C3F1, females, in feed, site: any site (literature study), lesion: several types, types named in the paper, dosed 80 weeks, study length 90 weeks); 67 mg/kg/day (mouse, strain B6C3F1, females, in feed, site: lung, lesion: alveolar/bronchiolar adenoma + alveolar/bronchiolar carcinoma, dosed 80 weeks, study length 90 weeks); 0.546 mg/kg/day (inactive) (mouse, strain B6C3F1, males, in feed, site: any site (literature study), lesion: several types, types named in the paper, dosed 80 weeks, study length 90 weeks); 0.854 mg/kg/day (mouse, strain B6C3F1, males, in feed, site: liver, lesion: hepatocellular adenoma + hepatocellular carcinoma + neoplastic nodule, dosed 80 weeks, study length 90 weeks); 1.27 mg/kg/day (mouse, strain B6C3F1, males, in feed, site: lung, lesion: alveolar/bronchiolar adenoma + alveolar/bronchiolar carcinoma, dosed 80 weeks, study length 90 weeks); 0.227 mg/kg/day (inactive) (rat, strain Osborne-Mendel, females, in feed, site: adrenal gland, lesion: adenoma, NOS + carcinoma, NOS, dosed 80 weeks, study length 109 weeks). Moreover, the TD50 by setting is: (rat, strain Osborne-Mendel, females, in feed, site: liver, lesion: hemangioma, dosed 117 weeks, study length 121 weeks) 42.3 mg/kg/day (inactive); (rat, strain Osborne-Mendel, females, in feed, site: liver, lesion: hepatocellular adenoma + hepatocellular carcinoma + neoplastic nodule, dosed 80 weeks, study length 110 weeks) 7.44 mg/kg/day; (rat, strain Osborne-Mendel, females, in feed, site: pituitary gland, lesion: adenoma, NOS, dosed 80 weeks, study length 109 weeks) 0.579 mg/kg/day; (rat, strain Osborne-Mendel, males, in feed, site: adrenal gland, lesion: adenoma, NOS + carcinoma, NOS, dosed 80 weeks, study length 110 weeks) 0.553 mg/kg/day (inactive); (rat, strain Osborne-Mendel, males, in feed, site: adrenal gland, lesion: adenoma, NOS, dosed 80 weeks, study length 110 weeks) 0.66 mg/kg/day; (rat, strain Osborne-Mendel, males, in feed, site: all sites, lesion: hemangioma, dosed 80 weeks, study length 110 weeks) 0.661 mg/kg/day. Also, the TD50 is 0.776 mg/kg/day (inactive) (rat, strain Osborne-Mendel, males, in feed, site: any site (literature study), lesion: several types, types named in the paper, dosed 80 weeks, study length 110 weeks) and 1.75 mg/kg/day (rat, strain Osborne-Mendel, males, in feed, site: pancreatic islets, lesion: islet-cell carcinoma, dosed 80 weeks, study length 110 weeks). In addition, the carcinogen call was “negative (inactive)” (rat, strain Osborne-Mendel, females, in feed, site: any site (literature study), lesion: several types, types named in the paper, dosed 80 weeks, study length 110 weeks); “negative (inactive)” (rat, strain Osborne-Mendel, females, in feed, site: any site (literature study), lesion: several types, types named in the paper, dosed 117 weeks, study length 121 weeks); “negative (inactive)” (rat, strain Osborne-Mendel, males, in feed, site: any site (literature study), lesion: several types, types named in the paper, dosed 121 weeks, study length 126 weeks); “negative (inactive)” (rat, strain Osborne-Mendel, males, in feed, site: liver, lesion: hemangioma, dosed 121 weeks, study length 126 weeks).
Take `NCC(=O)O`: the TD50 (rat, strain F344/DuCrj, females, in drinking water, site: any site (literature study), lesion: several types, types named in the paper, dosed 108 weeks, study length 108 weeks) is 7550 mg/kg/day; the TD50 (rat, strain F344/DuCrj, females, in drinking water, site: kidney/pelvis, lesion: transitional-cell papilloma, dosed 108 weeks, study length 108 weeks) is 25700 mg/kg/day; the TD50 (rat, strain F344/DuCrj, females, in drinking water, site: liver, lesion: neoplastic nodule, dosed 108 weeks, study length 108 weeks) was 157000 mg/kg/day; the TD50 (rat, strain F344/DuCrj, females, in drinking water, site: uterus, lesion: endometrial stromal polyp, dosed 108 weeks, study length 108 weeks) was found to be 3100 mg/kg/day.
For `C=CCOCC1CO1` (centres undefined), the TD50 by setting is: (mouse, strain B6C3F1, females, inhaled, site: Harderian gland, lesion: adenoma, dosed 102 weeks, study length 105 weeks) 121 mg/kg/day; (mouse, strain B6C3F1, females, inhaled, site: lung, lesion: alveolar/bronchiolar adenoma + alveolar/bronchiolar carcinoma, dosed 102 weeks, study length 105 weeks) 123 mg/kg/day; (mouse, strain B6C3F1, females, inhaled, site: nasal cavity, respiratory epithelium, lesion: adenoma, dosed 102 weeks, study length 105 weeks) 614 mg/kg/day; (mouse, strain B6C3F1, males, inhaled, site: lung, lesion: alveolar/bronchiolar adenoma + alveolar/bronchiolar carcinoma, dosed 102 weeks, study length 105 weeks) 727 mg/kg/day; (mouse, strain B6C3F1, males, inhaled, site: nasal cavity, respiratory epithelium, lesion: adenoma, dosed 102 weeks, study length 105 weeks) 182 mg/kg/day; (rat, strain Osborne-Mendel, females, inhaled, site: any site (literature study), lesion: several types, types named in the paper, dosed 103 weeks, study length 106 weeks) 25.9 mg/kg/day (inactive). The TD50 is, setting by setting: (rat, strain Osborne-Mendel, males, inhaled, site: any site (literature study), lesion: several types, types named in the paper, dosed 103 weeks, study length 106 weeks) 1.01 mg/kg/day; (rat, strain Osborne-Mendel, males, inhaled, site: nasal cavity, olfactory epithelium + nasal cavity, respiratory epithelium, lesion: adenocarcinoma + papillary adenoma + squamous-cell carcinoma, dosed 103 weeks, study length 106 weeks) 14.9 mg/kg/day.
Turning to `Nc1ccc(NCCO)c([N+](=O)[O-])c1`, the TD50 was determined as 292 mg/kg/day (mouse, strain B6C3F1, females, by gavage, site: any site (literature study), lesion: several types, types named in the paper, dosed 104 weeks, study length 105 weeks); 721 mg/kg/day (mouse, strain B6C3F1, females, by gavage, site: forestomach, lesion: squamous-cell papilloma, dosed 104 weeks, study length 105 weeks); 4670 mg/kg/day (mouse, strain B6C3F1, females, by gavage, site: lung, lesion: alveolar/bronchiolar adenoma + alveolar/bronchiolar carcinoma, dosed 104 weeks, study length 105 weeks); 427 mg/kg/day (mouse, strain B6C3F1, males, by gavage, site: liver, lesion: hepatocellular adenoma + hepatocellular carcinoma + neoplastic nodule, dosed 104 weeks, study length 105 weeks); 427 mg/kg/day (mouse, strain B6C3F1, males, by gavage, site: liver, lesion: hepatocellular adenoma + hepatocellular carcinoma, dosed 104 weeks, study length 105 weeks); 1750 mg/kg/day (mouse, strain B6C3F1, males, by gavage, site: lung, lesion: alveolar/bronchiolar adenoma + alveolar/bronchiolar carcinoma, dosed 104 weeks, study length 105 weeks). The TD50 is 4870 mg/kg/day (inactive) (rat, strain Fischer 344, females, by gavage, site: any site (literature study), lesion: several types, types named in the paper, dosed 105 weeks, study length 106 weeks); 500 mg/kg/day (inactive) (rat, strain Fischer 344, males, by gavage, site: any site (literature study), lesion: several types, types named in the paper, dosed 105 weeks, study length 106 weeks); 1.51e+06 mg/kg/day (rat, strain Fischer 344, males, by gavage, site: liver, lesion: hepatocellular adenoma + hepatocellular carcinoma + neoplastic nodule, dosed 105 weeks, study length 106 weeks).
For `CS(=O)(=O)OCCCCOS(C)(=O)=O`, the TD50 by setting is: (rat, strain BR 46, males, by gavage, site: any site (literature study), lesion: benign tumor, dosed 52 weeks, study length 104 weeks) 0.642 mg/kg/day; (rat, strain BR 46, males, by gavage, site: any site (literature study), lesion: malignant tumor, dosed 52 weeks, study length 104 weeks) 0.117 mg/kg/day; (rat, strain BR 46, males, by gavage, site: any site (literature study), lesion: several types, types named in the paper, dosed 52 weeks, study length 104 weeks) 0.0931 mg/kg/day.
For `CCN=[N+](C)[O-]`, the TD50 (rat, strain Fischer 344, males, in drinking water, site: kidney, lesion: several types, types named in the paper, dosed 30 weeks, study length 95 weeks) was 123 mg/kg/day; the TD50 (rat, strain Fischer 344, males, in drinking water, site: liver, lesion: hemangiosarcoma, dosed 30 weeks, study length 95 weeks) came to 302 mg/kg/day; the TD50 (rat, strain Fischer 344, males, in drinking water, site: liver, lesion: hepatocellular carcinoma, dosed 30 weeks, study length 95 weeks) was 18.2 mg/kg/day; the TD50 (rat, strain Fischer 344, males, in drinking water, site: liver, lesion: neoplastic nodule, dosed 30 weeks, study length 95 weeks) was 664 mg/kg/day; the TD50 (rat, strain Fischer 344, males, in drinking water, site: liver, lesion: several types, types named in the paper, dosed 30 weeks, study length 95 weeks) was 11.5 mg/kg/day.
Consider `CCCCN(CCCC)C(=S)[S-].CCCCN(CCCC)C(=S)[S-].[Ni+2]`, for which the TD50 is 0.185 mg/kg/day (inactive) (mouse, strain B6AKF1, females, oral dosing, site: any site (literature study), lesion: several types, types named in the paper, dosed 76 weeks, study length 76 weeks); 0.0869 mg/kg/day (inactive) (mouse, strain B6AKF1, females, oral dosing, site: lung, lesion: adenoma, dosed 76 weeks, study length 76 weeks); 0.153 mg/kg/day (inactive) (mouse, strain B6AKF1, males, oral dosing, site: lung, lesion: adenoma, dosed 76 weeks, study length 76 weeks); 0.174 mg/kg/day (inactive) (mouse, strain B6C3F1, females, oral dosing, site: any site (literature study), lesion: several types, types named in the paper, dosed 76 weeks, study length 76 weeks); 0.174 mg/kg/day (inactive) (mouse, strain B6C3F1, females, oral dosing, site: lung, lesion: adenoma, dosed 76 weeks, study length 76 weeks); 0.0283 mg/kg/day (inactive) (mouse, strain B6C3F1, males, oral dosing, site: any site (literature study), lesion: several types, types named in the paper, dosed 76 weeks, study length 76 weeks). Also, the TD50 is, setting by setting: (mouse, strain B6C3F1, males, oral dosing, site: liver, lesion: hepatoma, dosed 76 weeks, study length 76 weeks) 0.0509 mg/kg/day (inactive); (mouse, strain B6C3F1, males, oral dosing, site: lung, lesion: adenoma, dosed 76 weeks, study length 76 weeks) 0.163 mg/kg/day (inactive). Also, the carcinogen call runs as follows: (mouse, strain B6AKF1, females, oral dosing, site: liver, lesion: hepatoma, dosed 76 weeks, study length 76 weeks) “negative (inactive)”; (mouse, strain B6AKF1, males, oral dosing, site: any site (literature study), lesion: several types, types named in the paper, dosed 76 weeks, study length 76 weeks) “negative (inactive)”; (mouse, strain B6AKF1, males, oral dosing, site: liver, lesion: hepatoma, dosed 76 weeks, study length 76 weeks) “negative (inactive)”; (mouse, strain B6C3F1, females, oral dosing, site: liver, lesion: hepatoma, dosed 76 weeks, study length 76 weeks) “negative (inactive)”.
